In publication PMC6930660, “Synthesis and Comparative Structure–Activity Study of Carbohydrate-Based Phenolic Compounds as α-Glucosidase Inhibitors and Antioxidants” (Molecules, 2019):

Columns and labels:
[1] = DPPH radical scavenging assay (antioxidant activity); settings: for EC50: MES-NaOH buffer pH 6.0, 15 min in the dark
Experimental: The antioxidant activity was assessed by employing the 2,2-diphenyl-1-picrylhydrazyl (DPPH) radical scavenging assay, according to the previously published method. In total, 100 μL of each sample (1000–10 μg/mL in 50%EtOH/ H2O ) or trolox (160–0 μM in 50% EtOH/ H2O ), and 50 μL of 2-(N-morpholino)ethanesulfonic acid (MES)-NaOH buffer (200 mM, pH = 6.0), and 50 μL of an 800 μM DPPH diluted in 99.5% EtOH were mixed in 96-well plates. Following shaking the microplate for 15 min in the dark, the absorbance was recorded at 520 nm using a microplate reader (Bio-Rad, Model 680). Effective percentages (%) were calculated as follows: Effective percentages (%) = 1−As/Ab ×100 where As is the absorbance of the sample and Ab is the absorbance of the blank (without samples, 50% EtOH/ H2O solution was used instead).
The trolox-equivalent (sample-mol/trolox-mol) was calculated as follows: Trolox−equivalent (mol−trolox/mol−sample) = Ss/St where Ss is the slope of the sample and St is the slope of trolox.

[2] = dissolution of the sample in water for the α-glucosidase assay; assay type: physicochemical; set-up: key: −: Did not dissolve in water; settings: samples prepared in H2O
Experimental: (§1) The α-glucosidase inhibitory activity of all samples was assayed utilizing a commercially available FUJIFILM α-glucosidase inhibitory activity assay kit. In total, 25 μL of each sample (25–2000 μg/mL in H2O ) or acarbose (0.5–8 μg/mL in H2O ), 50 μL of 18.5 mM maltose diluted in maleic anhydride buffer (100 mM, pH = 6.0), and 25 μL of the rat α-glucosidase solution were incubated in a micro-tube at 37 °C for 30 min. Subsequently, 400 μL of purified water was added to the solution and the reaction mixture was boiled for 3 min to deactivate α-glucosidase. The generated glucose was measured by LabAssay™ glucose (mutarotase-GOD method). In total, 100 μL of the reaction solution and 150 μL of the coloring solution were incubated in 96-well plates at 37 °C for 10 min, and the absorbance was recorded at 505 nm using a microplate reader (Bio-Rad, Model 680). The inhibition percentage was calculated using the following Equation: Inhibition percentage (%) = 1−As−Ab/Ac ×100 where As is the absorbance of the analyzed sample, Ab is the absorbance of the blank (immediate deactivation), and Ac is the absorbance of the control ([…]). Acarbose was used as the positive control.

rat α-glucosidase = assay: α-glucosidase inhibitory activity assay (FUJIFILM kit, maltose substrate, glucose measured by mutarotase-GOD method); assay type: biochemical; settings: rat α-glucosidase, 18.5 mM maltose, maleic anhydride buffer pH 6.0, 37 °C, 30 min; mean ± S.D. of n = 2
Experimental: as §1

Structure (SMILES) | antioxidant activity (in words) [1] | EC50 ([1]; mean ± S.D. of n = 3) | solubility in water (no α-glucosidase IC50 obtained) [2] | IC50 (rat α-glucosidase) | Antioxidant Trolox-eq (TE) ([1]; trolox-equivalent (mol-trolox/mol-sample) = slope of sample / slope of trolox, mean ± S.D. of n = 3)
O=C(OC[C@H]1OC[C@H](OC(=O)c2ccc(O)cc2)[C@@H](OC(=O)c2ccc(O)cc2)[C@@H]1OC(=O)c1ccc(O)cc1)c1ccc(O)cc1 [Compound 58, 1,5-Anhydro-2,3,4,6-tetrakis-O-(4-hydroxybenzoyl)-D-glucitol] | no antioxidant activity was observed | > 78 µM | −^d | – | –
O=C(OC[C@H]1OC[C@H](OC(=O)c2cccc(O)c2)[C@@H](OC(=O)c2cccc(O)c2)[C@@H]1OC(=O)c1cccc(O)c1)c1cccc(O)c1 [Compound 57, 1,5-Anhydro-2,3,4,6-tetrakis-O-(3-hydroxybenzoyl)-D-glucitol] | no antioxidant activity was observed | > 78 µM | −^d | – | –
COC(=O)c1cc(O)c(O)c(O)c1 [Methyl gallate, reference compound] | – | 19.6 ± 0.11 µM | – | 90.5 ± 6.97 µM | 2.42 ± 0.27
